The source of these data is US6602870B2, “Oral dosage form for administration of the combination of tegafur, uracil, folinic acid, and oxaliplatin and method of using the same” (Bristol-Myers Squibb Company, priority 2000, dated 2003).

Data set [1] in a line: Toxicity (body weight ratio, mortality) in HT29 xenograft nude mice. In kind it is in vivo. The following applies: day 28 before sacrifice; 25 animals per group.
Protocol: Tumor measurements and body weights were recorded twice a week. […] For each experiment, the same observer made all measurements to minimize variations. Toxicity was evaluated in terms of body weight ratio (Wn/Wo) and mortality; Wn is the body weight measured n days after the initial administration, while Wo is the body weight at the start of administration. […] Two consecutive experiments gave similar data, and results represent the average of all data for a total of 25 animals per group. The means of each of the four groups were compared using the one-way analysis of variance. The Barlett's test was used for homogeneity of variances and the Tukey-Kramer multiple comparison test for inter-group comparison. Data analysis was performed using an IBM PC. Statistical analysis and graphs were performed using Instat and Prism software (GraphPad, San Diego, Calif.).
Body weight was evaluated in terms of the ratio of body weight measured n days after treatment (Wn) as compared to the body weight at the start of treatment (Wo). All animals (25 per group) were weighed twice a week.
The test system of data set [2] is human HT29 colorectal tumor cell xenografts. As to the kind of experiment: Growth inhibition study in nude mice transplanted with human HT29 colorectal tumor cell xenografts. The class given is in vivo. The protocol: Growth inhibition studies were performed using nude mice transplanted with human HT29 colorectal tumor cell xenografts and 1) not treated (control group), or treated 2) with oral UFT (20 mg/kg/day) and calcium folinate (4 mg/kg/day) for 28 days; 3) intraperitonealy with oxaliplatin (10 mg/kg at day 1), or 4) with a combination of oxaliplatin with UFT and calcium folinate. Tumor measurements were performed twice a week, and animals were sacrificed at day 28. The tumors were excised and weighed. Two separate experiments were performed, for a total number of 25 animals in each group.
Human colorectal cancer HT29 cells, obtained from Dr. J. Fogh (Sloan Kettering Institute for Cancer Research, N.Y.), were cultured in DMEM (Dulbeccos modified Eagle's medium, Eurobio, Paris, France), supplemented with 10% heat-decomplemented fetal bovine serum (Boehringer, Manheim, Germany), 100 U/ml penicillin, 100 μg/ml streptomycin and […] glutamine. Cells were grown at 37° C. in a humidified atmosphere containing 5% CO2. The medium was renewed every 2 days, and the cells were passaged twice a week by trypsin/EDTA to maintain the cells in exponential growth.
Female BALB/c nude (nu+/nu+) aged 6 weeks were maintained in pathogen free state. Human HT29 colorectal xenograft (1×10^6 cells) was transplanted sub-cutaneously into the hind limb of each animal. Treatment was initiated 14 days later when the tumor became easily palpable and measurable (mean size of tumor surface=33 mm^2).
Oxaliplatin was administered intraperitoneally at a dose of 10 mg/kg day 1. […]
Two axes (mm) of tumor (the longest axis and the axis perpendicular to the longest axis) were measured with a caliper. Tumor measurements and body weights were recorded twice a week. […] Toxicity was evaluated in terms of body weight ratio (Wn/Wo) and mortality; Wn is the body weight measured n days after the initial administration, while Wo is the body weight at the start of administration. […] Results are expressed as mean weight (grams)±standard deviation. […]

Where “and” joins values, the source holds several entries; their conditions need not be identical. Identical values can stand only once.

As for `O=C1[O][Pt]2([NH][C@@H]3CCCC[C@H]3[NH]2)[O]C1=O` [oxaliplatin, [(1R, 2R)-1,2-cyclohexanediamine-N,N′][oxalato(2-)-O, O′]platinum], the “Body Weight Ratio (Wn/Wo)” value in data set [1] is recorded as 1.05 ± 0.09. Further, in data set [2] (day 28, FIG. 1), the “Decrease of tumor size (tumor growth inhibition) as compared to control” value turned out to be 24%. Moreover, the “Tumor weight decrease as compared to control” value in data set [2] (day 28, same doses) was 29.9% and 30%. For the same compound, in data set [2] (tumors excised 28 days after treatment initiation, 25 animals per group, UFT 20 mg/kg/day + calcium folinate 4 mg/kg/day oral day 1-28, oxaliplatin 10 mg/kg i.p. day 1), the Mean tumor weight worked out at 2.03 ± 0.14 g.
